Measurements as given in PubChem BioAssay AID1963441 (Molecular Pharmacology Branch, DTP, NCI, 2024).
Each block holds one molecule with its values, some of them ahead of it.

Test system: NCI-H1876 complex spheroid growth, % test/control
Experiment: Anticancer human tumor NCI-H1876 cell line growth inhibition [Asc];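 also: compound exposure lasted 7 days starting three days after seeding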;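 as to viability, T/C: 100% = DMSO vehicle control wells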
Conditions: for IC50: curve of first compound; for viability, T/C: stronger effect = lower value
Outline: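 Complex solid-tumor spheroids incorporating human endothelial and mesenchymal stem cells received single agents or combinations over half-log dilution ranges anchored to clinical Cmax.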

[1] = second compound 0.00949 µM, first compound 0.00316 µM
[2] = second compound 0.00949 µM, first compound 0.01 µM
[3] = second compound 0.00949 µM, first compound 0.0316 µM
[4] = second compound 0.00949 µM, first compound 0.1 µM
[5] = second compound 0.03 µM, first compound 0.00316 µM
[6] = second compound 0.03 µM, first compound 0.01 µM
[7] = second compound 0.03 µM, first compound 0.0316 µM
[8] = second compound 0.03 µM, first compound 0.1 µM
[9] = second compound 0.0949 µM, first compound 0.00316 µM
[10] = second compound 0.0949 µM, first compound 0.01 µM
[11] = second compound 0.0949 µM, first compound 0.0316 µM
[12] = second compound 0.0949 µM, first compound 0.1 µM
[13] = second compound 0.3 µM, first compound 0.00316 µM
[14] = second compound 0.3 µM, first compound 0.01 µM
[15] = second compound 0.3 µM, first compound 0.0316 µM
[16] = second compound 0.3 µM, first compound 0.1 µM
[17] = second compound 0.949 µM, first compound 0.00316 µM
[18] = second compound 0.949 µM, first compound 0.01 µM
[19] = second compound 0.949 µM, first compound 0.0316 µM
[20] = second compound 0.949 µM, first compound 0.1 µM
[21] = second compound 3 µM, first compound 0.00316 µM
[22] = second compound 3 µM, first compound 0.01 µM
[23] = second compound 3 µM, first compound 0.0316 µM
[24] = second compound 3 µM, first compound 0.1 µM

- IC50 (second compound 0.00316 µM): 4730 nM
- IC50 (second compound 0.01 µM): > 10000 nM
- IC50 (second compound 0.0316 µM): > 10000 nM
- IC50 (second compound 0.1 µM): > 10000 nM
- IC50 (second compound 0.316 µM): > 10000 nM
- IC50 (second compound 1 µM): > 10000 nM
SMILES: O=C(c1cc(Cc2n[nH]c(=O)c3ccccc23)ccc1F)N1CCN(C(=O)C2CC2)CC1 + CNC(C)C(=O)NC1CN(S(=O)(=O)c2cccc(S(=O)(=O)N3CCC4CCC(C(=O)NC(c5ccccc5)c5ccccc5)N4C(=O)C(NC(=O)C(C)NC)C3)c2)CCC2CCC(C(=O)NC(c3ccccc3)c3ccccc3)N2C1=O
- viability, T/C (second compound 0.00316 µM, first compound 0.0316 µM): 67%
- viability, T/C (second compound 0.00316 µM, first compound 0.1 µM): 61.7%
- viability, T/C (second compound 0.00316 µM, first compound 0.316 µM): 65.1%
- viability, T/C (second compound 0.00316 µM, first compound 1 µM): 66.5%
- viability, T/C (second compound 0.00316 µM, first compound 3.16 µM): 60.6%
- viability, T/C (second compound 0.00316 µM, first compound 10 µM): 29.6%
- viability, T/C (second compound 0.01 µM, first compound 0.0316 µM): 96%
- viability, T/C (second compound 0.01 µM, first compound 0.1 µM): 93%
- viability, T/C (second compound 0.01 µM, first compound 0.316 µM): 105%
- viability, T/C (second compound 0.01 µM, first compound 1 µM): 101%
- viability, T/C (second compound 0.01 µM, first compound 3.16 µM): 96.5%
- viability, T/C (second compound 0.01 µM, first compound 10 µM): 66.3%
- viability, T/C (second compound 0.0316 µM, first compound 0.0316 µM): 98.5%
- viability, T/C (second compound 0.0316 µM, first compound 0.1 µM): 93.7%
- viability, T/C (second compound 0.0316 µM, first compound 0.316 µM): 92%
- viability, T/C (second compound 0.0316 µM, first compound 1 µM): 99.9%
- viability, T/C (second compound 0.0316 µM, first compound 3.16 µM): 97.8%
- viability, T/C (second compound 0.0316 µM, first compound 10 µM): 69.8%
- viability, T/C (second compound 0.1 µM, first compound 0.0316 µM): 89.5%
- viability, T/C (second compound 0.1 µM, first compound 0.1 µM): 97.6%
- viability, T/C (second compound 0.1 µM, first compound 0.316 µM): 103%
- viability, T/C (second compound 0.1 µM, first compound 1 µM): 105%
- viability, T/C (second compound 0.1 µM, first compound 3.16 µM): 95.6%
- viability, T/C (second compound 0.1 µM, first compound 10 µM): 62.4%
- viability, T/C (second compound 0.316 µM, first compound 0.0316 µM): 94.2%
- viability, T/C (second compound 0.316 µM, first compound 0.1 µM): 99.9%
- viability, T/C (second compound 0.316 µM, first compound 0.316 µM): 116%
- viability, T/C (second compound 0.316 µM, first compound 1 µM): 111%
- viability, T/C (second compound 0.316 µM, first compound 3.16 µM): 104%
- viability, T/C (second compound 0.316 µM, first compound 10 µM): 66.7%
- viability, T/C (second compound 1 µM, first compound 0.0316 µM): 101%
- viability, T/C (second compound 1 µM, first compound 0.1 µM): 91.2%
- viability, T/C (second compound 1 µM, first compound 0.316 µM): 97%
- viability, T/C (second compound 1 µM, first compound 1 µM): 104%
- viability, T/C (second compound 1 µM, first compound 3.16 µM): 101%
- viability, T/C (second compound 1 µM, first compound 10 µM): 56.6%

- IC50 (second compound 0.00949 µM): > 1000 nM
- IC50 (second compound 0.03 µM): > 1000 nM
- IC50 (second compound 0.0949 µM): > 1000 nM
- IC50 (second compound 0.3 µM): > 1000 nM
- IC50 (second compound 0.949 µM): > 1000 nM
- IC50 (second compound 3 µM): > 1000 nM
SMILES: O=C(c1ccc(F)c(F)c1Nc1ccc(I)cc1F)N1CC(O)([C@@H]2CCCCN2)C1 + CCN1C(C(=O)NC23CCC(C(=O)O)(CC2)CC3)C(c2cccc(Cl)c2F)C2(C(=O)Nc3cc(Cl)ccc32)C12CCCCC2
- viability, T/C [1]: 102%
- viability, T/C [2]: 90.7%
- viability, T/C [3]: 104%
- viability, T/C [4]: 95.7%
- viability, T/C (second compound 0.00949 µM, first compound 0.316 µM): 93.4%
- viability, T/C (second compound 0.00949 µM, first compound 1 µM): 87.7%
- viability, T/C [5]: 100%
- viability, T/C [6]: 98.5%
- viability, T/C [7]: 95.5%
- viability, T/C [8]: 95.1%
- viability, T/C (second compound 0.03 µM, first compound 0.316 µM): 89.5%
- viability, T/C (second compound 0.03 µM, first compound 1 µM): 82.3%
- viability, T/C [9]: 104%
- viability, T/C [10]: 97.5%
- viability, T/C [11]: 88%
- viability, T/C [12]: 102%
- viability, T/C (second compound 0.0949 µM, first compound 0.316 µM): 85.8%
- viability, T/C (second compound 0.0949 µM, first compound 1 µM): 79.2%
- viability, T/C [13]: 99.9%
- viability, T/C [14]: 110%
- viability, T/C [15]: 109%
- viability, T/C [16]: 101%
- viability, T/C (second compound 0.3 µM, first compound 0.316 µM): 103%
- viability, T/C (second compound 0.3 µM, first compound 1 µM): 83.7%
- viability, T/C [17]: 110%
- viability, T/C [18]: 114%
- viability, T/C [19]: 112%
- viability, T/C [20]: 109%
- viability, T/C (second compound 0.949 µM, first compound 0.316 µM): 108%
- viability, T/C (second compound 0.949 µM, first compound 1 µM): 77.4%
- viability, T/C [21]: 103%
- viability, T/C [22]: 98.3%
- viability, T/C [23]: 101%
- viability, T/C [24]: 99.1%
- viability, T/C (second compound 3 µM, first compound 0.316 µM): 91.3%
- viability, T/C (second compound 3 µM, first compound 1 µM): 77.4%

- IC50 (second compound 0.00949 µM): > 100 nM
- IC50 (second compound 0.03 µM): > 100 nM
- IC50 (second compound 0.0949 µM): > 100 nM
- IC50 (second compound 0.3 µM): > 100 nM
- IC50 (second compound 0.949 µM): > 100 nM
- IC50 (second compound 3 µM): > 100 nM
SMILES: NC1CCC(NC2CC2c2ccccc2)CC1 (stereo unspecified) + CCN1C(C(=O)NC23CCC(C(=O)O)(CC2)CC3)C(c2cccc(Cl)c2F)C2(C(=O)Nc3cc(Cl)ccc32)C12CCCCC2
- viability, T/C (second compound 0.00949 µM, first compound 0.000316 µM): 103%
- viability, T/C (second compound 0.00949 µM, first compound 0.001 µM): 105%
- viability, T/C [1]: 105%
- viability, T/C [2]: 113%
- viability, T/C [3]: 108%
- viability, T/C [4]: 119%
- viability, T/C (second compound 0.03 µM, first compound 0.000316 µM): 112%
- viability, T/C (second compound 0.03 µM, first compound 0.001 µM): 107%
- viability, T/C [5]: 110%
- viability, T/C [6]: 117%
- viability, T/C [7]: 120%
- viability, T/C [8]: 110%
- viability, T/C (second compound 0.0949 µM, first compound 0.000316 µM): 106%
- viability, T/C (second compound 0.0949 µM, first compound 0.001 µM): 117%
- viability, T/C [9]: 113%
- viability, T/C [10]: 113%
- viability, T/C [11]: 117%
- viability, T/C [12]: 112%
- viability, T/C (second compound 0.3 µM, first compound 0.000316 µM): 117%
- viability, T/C (second compound 0.3 µM, first compound 0.001 µM): 116%
- viability, T/C [13]: 123%
- viability, T/C [14]: 124%
- viability, T/C [15]: 118%
- viability, T/C [16]: 108%
- viability, T/C (second compound 0.949 µM, first compound 0.000316 µM): 118%
- viability, T/C (second compound 0.949 µM, first compound 0.001 µM): 121%
- viability, T/C [17]: 134%
- viability, T/C [18]: 113%
- viability, T/C [19]: 133%
- viability, T/C [20]: 116%
- viability, T/C (second compound 3 µM, first compound 0.000316 µM): 122%
- viability, T/C (second compound 3 µM, first compound 0.001 µM): 112%
- viability, T/C [21]: 111%
- viability, T/C [22]: 126%
- viability, T/C [23]: 125%
- viability, T/C [24]: 111%
